This note sets out measurements from PubChem BioAssay AID179 (DTP/NCI, 2004).

This assay has as its system CEM cells HIV-1 protection, formazan growth assay. As to the kind of experiment: NCI AIDS Antiviral Assay. The following applies: for IC50: measured here: growth of uninfected CEM cells. Summed up:
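Screen of anti-HIV-1 activity in human CEM cells using a formazan-based growth measurement at five drug concentrations. Hits with 50% or greater protection were repeated, and confirmation required reproducible complete protection.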

Structures are written as SMILES. Active and inactive are the calls of the source.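 How the source made its calls: active means compounds giving half or more protection of infected cells from virus-caused growth loss, again on retest; inactive means the rest.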 Where a SMILES comes first, the peptide text is derived from it.

The EC50 is the midpoint of the concentration-response curve. By IC50 is commonly meant the concentration that gives 50% inhibition. Read a low IC50 as greater potency in that assay. As for `CCNC(=S)N/N=C(/c1ccc(OC)cc1)P(=O)(OCC)OCC`, the EC50 is above 50.1 µM and the IC50 was above 50.1 µM.
Take `COc1ccc(N2N=NN(C(C)C)/C2=C(/Cl)c2nnnn2-c2ccc(OC)cc2)cc1`: the EC50 was above 200 µM and the IC50 turned out to be 9.33 µM.
For `Cc1cc(C)c(S(=O)(=O)Sc2nnnn2C)c(C)c1` the same measures were above 603 µM and 126 µM.
Turning to `COC(=O)c1c(C(=O)OC)c(C(=O)OC)c2c([nH]c3ccccc32)c1C(=O)OC`, the outcome was inactive.
On to `COc1c(C(CC(C)C)OC(C)=O)ccc2c1C(=O)OCc1cc(C)cc(O)c1O2` (configuration not stated), for which the EC50 was above 200 µM and the IC50 came to 10.5 µM.
Take `CO/C=C/CCCO`: the EC50 is above 2140 µM and the 50% inhibitory concentration (IC50) was above 2140 µM.
Consider `CCCCCCc1ccc(C(=O)NO)cc1`, for which the EC50 is above 200 µM and the IC50 is 91.2 µM.
Regarding `CCOC(=O)C1=CC(C)(C(=O)OCC)Nc2c(nc(N)[nH]c2=O)N1` (configuration not stated), the EC50 is 138 µM and the IC50 was above 200 µM.
In the same order, the values of `Clc1cccc(-c2nc3cccc4c3n2Cc2ncccc2-4)c1` are above 200 µM and above 200 µM.
Regarding `COc1ccc2[nH]c3c(cnn4cnnc34)c2c1`, the result was inactive.
As for `C/C=C1/[C@@H]2C[C@H]3C4=Nc5ccccc5C4(C4[C@@H](O)ON3[C@@H]14)[C@@H]2C(=O)OC`, the EC50 was above 200 µM and the IC50 was above 200 µM.
On to `C/C(CCN(C)C)=N/O`, for which the outcome was inactive.
Turning to `CCCOC1=NC2=NC(OCCC)=NC3=C(Br)C=C(Br)C(=N1)N23`, the EC50 was above 42.7 µM and the IC50 is above 42.7 µM.
In the case of `C=CC(C)(C)n1cc(C2=C(O)C(=O)C(c3c(CC=C(C)C)[nH]c4ccccc34)=C(O)C2=O)c2ccccc21`, the EC50 was above 200 µM and the IC50 is 2.57 µM.
For `CN(C)c1ccc(N=Nc2ccc3nc[nH]c3c2)cc1` the same measures were above 200 µM and 41.7 µM.
For `N#Cc1c(N)nc([Se]CC(=O)c2ccc(Cl)cc2)c(C#N)c1-c1ccco1` the same measures were above 200 µM and 141 µM.
For `O=Nc1c(O)cc(Nc2ccc(Br)cc2)c2ccccc12` the same measures were above 200 µM and 39.8 µM.
`CCOC(=O)CN1C(=O)S/C(=C2\C(=O)N(C)c3ccc(Br)cc32)C1=O`: the EC50 was above 200 µM and the IC50 is above 200 µM.
`CC(C)NC(=O)N(Nc1ccccc1)C(C)(C)C`: the EC50 was above 200 µM and the IC50 came to 110 µM.
In the same order, the values of `CCCCCCCCC(O)C(O)CCCCCCCC(=O)O` (configuration not stated) are above 200 µM and 53.7 µM.
In the case of `COc1ccc(NC(C)=O)cc1C1CCC(=O)N1` (configuration not stated), the result was inactive.
Still for that read-out and setting: to `CCOC(=O)C1C(=S)NC(=O)C1C#N` (configuration not stated) belongs “inactive”.
`Cc1cccc(NC(=O)O/N=C(\Cl)C(C)C)c1`: the EC50 is above 20 µM and the IC50 turned out to be 2.82 µM.
Turning to `O=C1C(c2cnc3ccccc3n2)=C(O)c2ccccc21`, the EC50 is above 2.63 µM and the IC50 was above 2.63 µM.
Regarding `CC1=C([N+](=O)[O-])[C@@H](N2CCOCC2)[C@](C)(N2CCOCC2)S1`, the outcome was inactive.
Take `C1=CC2/C=C\c3[nH]c4ccccc4c3CCN(C1)C2` (configuration not stated): the EC50 was above 162 µM and the IC50 stood at 75.9 µM.
With `NC(N)=NCCCC(NC(=O)OCCCCCCn1ccc(N)nc1=O)C(=O)O` (configuration not stated), the EC50 is above 200 µM and the IC50 was above 200 µM.
With `Oc1cccc2c1N1CCN2CC1`, the EC50 was above 200 µM and the IC50 was above 200 µM.
`O=[N+]([O-])c1ccc(N=Cc2ccccc2O)cc1`: the EC50 was above 200 µM and the IC50 came out at 8.91 µM.
Turning to `CCOC(=O)C1N(S(=O)(=O)c2ccc(C)cc2)CCC12c1ccccc1N(C(C)=O)C2c1ccc(OC)c(OC)c1` (configuration not stated), the outcome was inactive.
With `O=C1CC=CN1CCn1c(=S)[nH]c2ccccc21`, the EC50 is above 501 µM and the IC50 was above 501 µM.
Take `COc1cc(OC)c2c(=O)c3cccc(O)c3oc2c1`: the EC50 was above 200 µM and the IC50 was above 200 µM.
As for `CN1c2ccccc2C(=O)NC12CCN(CCCC(=O)c1ccc(F)cc1)CC2`, the EC50 is above 200 µM and the IC50 is above 100 µM.
For `C=CCN(N=O)C(=O)NCCCC(NC(C)=O)C(=O)NCc1ccccc1` (configuration not stated) the same measures were above 661 µM and above 661 µM.
For `O=C(C(Cl)=C(Nc1ccccc1)Nc1ccccc1)C(Cl)Cl` the same measures were above 200 µM and 19.5 µM.
In the same order, the values of `CCC[CH2][Sn]([CH2]CCC)([O]C(=O)CN)[O]C(=O)CN` are above 33.9 µM and 2.45 µM.
`COc1cc2c(cc1OC)C1=Cc3cc(OC)c(OC)cc3C(C)N1C=C2` (configuration not stated): the EC50 is above 355 µM and the IC50 was found to be 29.5 µM.
In the same order, the values of `c1ccc2cc(CNCCCCNCCCNCc3ccc4ccccc4c3)ccc2c1` are above 200 µM and 0.257 µM.
In the same order, the values of `O=C(/C=C\c1ccc(Cl)c(Cl)c1)c1ccc(Cl)cc1Cl` are above 14.5 µM and above 14.5 µM.
In the same order, the values of `COC1/C=C/OC2(C)Oc3c(C)c(O)c4c(O)c(c(/C=N/N5CCC(N6CCCCC6)CC5)c(O)c4c3C2=O)NC(=O)C(C)=C/C=C/C(C)C(O)C(C)C(O)C(C)C(OC(C)=O)C1C` (configuration not stated) are above 75.9 µM and above 75.9 µM.
For the compound `Cc1ccc2nc(NS(=O)(=O)c3cc(C)c(Cl)cc3S)[nH]c2c1`, the EC50 was above 200 µM and the IC50 is above 200 µM.
On to `N#Cc1c(O)c(C=O)c(=O)n2c1[nH]c1ccccc12`, for which the EC50 was above 200 µM and the IC50 was 170 µM.
For `c1ccc(N2CC3CSc4c(ccc5ccccc45)C3=N2)cc1` (configuration not stated) the same measures were above 200 µM and 162 µM.
In the same order, the values of `CC1=C(C(=O)Nc2c(C)cccc2C)C(c2ccc3c(c2)OCO3)C(C(=O)Nc2c(C)cccc2C)=C(C)N1` are above 25.7 µM and above 25.7 µM.
In turn, `O=[N+]([O-])c1cc([As](=O)(O)O)ccc1Cl` yielded an EC50 above 200 µM and an IC50 above 200 µM.
On to `CCC(=O)C(CCN1CCC(n2c(=O)[nH]c3ccccc32)CC1)(c1ccccc1)c1ccccc1`, for which the EC50 is above 200 µM and the IC50 came out at 19.1 µM.
In the same order, the values of `COc1ccc2cc(C(=O)NCCc3ccccc3)ccc2c1OC` are above 200 µM and above 200 µM.
In the same order, the values of `C1=CC2SSSC2C1` (configuration not stated) are above 251 µM and above 251 µM.
For the compound `COc1ccc(C2CCc3cc4c(cc3/C2=N/OC(C)=O)OCO4)cc1OC` (configuration not stated), the result was inactive.
Turning to `CCOC(=O)c1[nH]c2c(OCC)nc(OCC)nc2c1Br`, the EC50 is above 200 µM and the IC50 is above 200 µM.
Turning to `CC1(C)N=C(/C(Cl)=[N+](/[O-])C(=O)c2ccc(Cl)cc2)C(C)(C)N1O`, the EC50 was above 100 µM and the IC50 is 8.91 µM.
In the same order, the values of `Cn1cnc([N+](=O)[O-])c1Sc1nncc2[nH]cnc12` are 46.8 µM and above 200 µM.
In the same order, the values of `[N-]=[N+]=NC1=C(c2ccccc2)C(=O)c2cccc3cccc1c23` are above 200 µM and 7.76 µM.
With `O=C(/C=C/CC(O)(c1ccccc1)c1ccccc1)Nc1ccccc1Cl`, the EC50 is above 19.1 µM and the IC50 is above 19.1 µM.
As to `Nc1ncnc2c1ncn2C1C=CC(COS(N)(=O)=O)C1` (configuration not stated), the EC50 was above 100 µM and the IC50 stood at 52.5 µM.
As to `CN(C)CCOc1cccc2c1C(=O)c1ccccc1C2=O`, the result was inactive.
For the compound `CSC1C(=O)Nc2ccc3ccccc3c21` (configuration not stated), the EC50 was above 200 µM and the IC50 is 10.2 µM.
In the case of `CC(C)C(NC(=O)C(N)CCCCN)C(=O)NC(CCCCN)C(=O)NCC(=O)NC(C(=O)O)C(C)O` (configuration not stated) (H-KVKGT-OH; configuration not given here), the outcome was inactive.
On to `N#Cc1c(N2CCCC2)[nH]c(=O)n(-c2ccccc2)c1=S`, for which the EC50 is above 200 µM and the IC50 was above 200 µM.
With `CCOC(=O)c1cnccc1CC1(C#N)c2ccccc2C=CN1C(=O)c1ccccc1` (configuration not stated), the EC50 is above 200 µM and the IC50 came to 17.8 µM.
In the same order, the values of `O=C1OC(c2ccccc2)=N/C1=C\c1cc(Cl)ccc1Cl` are above 6.31 µM and above 6.31 µM.
For `O=C(Cc1ccccc1)NN1C(=O)/C(=C\c2ccccc2O)SC1=Nc1ccccc1` the same measures were above 219 µM and 174 µM.
On to `O=S(=O)(O)CCO`, for which the EC50 is above 200 µM and the IC50 is above 200 µM.
With `COc1cccc(C2c3cc4c(cc3OC(Nc3ccccc3)C2C)OCO4)c1OC` (configuration not stated), the EC50 is above 200 µM and the IC50 amounted to 2.95 µM.
For the compound `C=C1C(=O)[C@]23C[C@H]1CC(O)[C@H]2C1(CCC[C@@](C)(COC(C)=O)C1C=O)COC3=O` (some centres not stated), the outcome was inactive.
On to `CN(/N=C/c1cccc2cccnc12)c1ccc([N+](=O)[O-])cc1[N+](=O)[O-]`, for which the result was inactive.
Regarding `CCOc1cnn(-c2ccccc2)c(=O)c1SCc1ccc(Cl)c(Cl)c1`, the EC50 was above 33.1 µM and the IC50 turned out to be 18.6 µM.
For `NC(=O)C(=O)C1CCC2=C(Sc3ccccc3N2)C1=O` (configuration not stated) the same measures were above 46.8 µM and above 46.8 µM.
For `CC1(C)C(O)C[C@]23CCC[C@](C)(C[C@@H](O)C12)C3` (some centres not stated) the same measures were above 200 µM and above 200 µM.
For `CN(C(=O)c1ccc(Cl)s1)C(=S)N(C)C(=O)c1ccc(Cl)s1` the same measures were above 120 µM and 115 µM.
As to `O=c1ccc2cc3ccoc3c(O)c2o1`, the EC50 was above 447 µM and the IC50 came out at 135 µM.
For the compound `COC(=O)c1cncc2c1CC1C3(C(=O)OC)C=NC(C4C(CO)=CCC43)C21C` (configuration not stated), the outcome was inactive.
Regarding `Ic1ccccc1SSc1ccccc1I`, the EC50 is above 200 µM and the IC50 turned out to be 8.71 µM.
With `C=CCCOC(=O)CO[N+](=O)[O-]`, the outcome was inactive.
Regarding `CN(C)CCSC(=Nc1ccccc1)N1CCCCC1`, the EC50 was above 123 µM and the IC50 amounted to 20.9 µM.
As to `CCOC(=O)C1CC(O)C(=O)N1C` (configuration not stated), the outcome was inactive.
